Target: T1, sGC α1/β1 heterodimer (Homo sapiens, UniProt Q02108+Q02153)
T1 construct: expressed in transfected cells
T1 sequence (Q02108 1-690 partner): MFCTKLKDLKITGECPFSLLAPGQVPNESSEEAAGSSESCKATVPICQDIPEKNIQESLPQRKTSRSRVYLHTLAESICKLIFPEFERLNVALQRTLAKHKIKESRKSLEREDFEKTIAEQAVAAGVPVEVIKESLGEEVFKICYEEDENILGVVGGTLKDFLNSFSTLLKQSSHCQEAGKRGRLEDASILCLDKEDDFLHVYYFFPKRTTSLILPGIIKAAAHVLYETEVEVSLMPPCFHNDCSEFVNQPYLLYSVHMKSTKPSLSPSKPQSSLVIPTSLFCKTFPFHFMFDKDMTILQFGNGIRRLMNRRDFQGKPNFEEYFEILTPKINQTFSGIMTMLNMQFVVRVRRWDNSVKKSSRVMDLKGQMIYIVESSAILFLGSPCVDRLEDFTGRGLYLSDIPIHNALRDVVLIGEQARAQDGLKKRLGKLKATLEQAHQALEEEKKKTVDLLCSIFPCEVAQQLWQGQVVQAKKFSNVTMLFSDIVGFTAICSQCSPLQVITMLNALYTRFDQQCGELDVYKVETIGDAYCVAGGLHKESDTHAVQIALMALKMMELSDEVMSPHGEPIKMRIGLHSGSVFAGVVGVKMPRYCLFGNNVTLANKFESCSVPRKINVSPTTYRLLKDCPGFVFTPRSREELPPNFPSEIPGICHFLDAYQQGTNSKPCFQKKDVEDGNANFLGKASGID
T1 sequence (Q02153 1-619): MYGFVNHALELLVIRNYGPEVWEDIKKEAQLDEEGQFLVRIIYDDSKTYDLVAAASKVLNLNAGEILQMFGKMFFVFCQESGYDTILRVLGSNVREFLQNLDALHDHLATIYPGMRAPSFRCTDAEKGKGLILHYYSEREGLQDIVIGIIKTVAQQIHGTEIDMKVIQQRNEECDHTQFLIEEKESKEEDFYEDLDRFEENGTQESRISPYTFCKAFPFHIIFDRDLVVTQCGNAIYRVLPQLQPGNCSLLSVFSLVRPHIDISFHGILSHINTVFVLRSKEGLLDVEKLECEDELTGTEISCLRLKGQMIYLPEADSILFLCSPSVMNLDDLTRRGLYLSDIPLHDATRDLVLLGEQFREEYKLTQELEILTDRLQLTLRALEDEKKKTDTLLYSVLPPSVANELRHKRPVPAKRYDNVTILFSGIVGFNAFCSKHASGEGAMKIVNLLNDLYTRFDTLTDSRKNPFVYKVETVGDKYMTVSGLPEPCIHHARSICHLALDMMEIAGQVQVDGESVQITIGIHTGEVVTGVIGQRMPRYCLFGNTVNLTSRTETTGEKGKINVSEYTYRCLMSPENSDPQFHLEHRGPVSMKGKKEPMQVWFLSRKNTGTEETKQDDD
Test: Cell-based sGC Functional Assay (cGMP level by HTRF in CHO-K1/sGC cells)
Details: with ODQ incubation (10 μM); for EC50: read-out: IP (nM) inflection point; for fold induction: read-out: maximum fold induction over DMSO control
Description: Cell-based sGC Functional Assay
A CHO-K1 cell line stably expressing the sGC α1/β1 heterodimer was generated using a standard transfection protocol. CHO-K1 cells were transfected with plasmids pIREShyghsGCα1 and pIRESneo-hsGCβ1 simultaneously using FUGENE reagent. Clones that stably express both subunits were selected with hygromycin and neomycin for ˜2 weeks. Clone #7 was chosen for the assay and was designated CHO-K1/sGC. CHO-K1/sGC cells were maintained in F-K12 medium containing 10% heat-inactivated Fetal Bovine Serum (FBS), 100 μg/mL penicillin/streptomycin, 0.5 mg/mL hygromycin and 0.25 mg/mL G418. On the day of the assay, cells were harvested in EBSS (Earle's balanced salt solution) Assay Buffer (EAB) containing 5 mM MgCl2, 10 mM HEPES (4-(2-hydroxyethyl)piperazine-1-ethanesulfonic acid) and 0.05% BSA (bovine serum albumin) and cell density was adjusted to 0.75−1.25×10^6 cells/ml with EAB. IBMX (3-isobutyl-1-methylxanthin, 0.5 mM) was added to inhibit degradation of cGMP. Compounds were diluted from DMSO stock solutions and added to the assay at a final DMSO concentration of 1%. Cells were incubated with compounds in the presence and absence of 10 μM of 1H-(1,2,4)oxadiazolo(4,3-a) quinoxalin-1-one (ODQ) for 1 hr at 37° C. At the end of the incubation period, the reaction was terminated and the cells were lysed. The level of intracellular cGMP was determined using an HTRF-based assay kit (CisBio, 62GM2PEC), which detects the displacement of a fluorescence labeled cGMP from its specific antibody. The amount of cGMP was plotted against compound concentration in PRISM software and the inflection point (IP) and maximum fold induction over DMSO control were derived from the plot.

**Q.** With `O=C(O)c1cnn(-c2cccc(-c3cc(Cl)ccc3-c3ccc(C4CCN(CC(F)(F)F)CC4)cc3)n2)c1C(F)(F)F` [Example 60, 1-(6-{4-chloro-4′-[1-(2,2,2-trifluoroethyl)piperidin-4-yl]biphenyl-2-yl}pyridin-2-yl)-5-(trifluoromethyl)-1H-pyrazole-4-carboxylic acid] as the molecule, how does the EC50 read?
**A.** The EC50 was 14.6 nM.

**Q.** And the fold induction?
**A.** Its fold induction is 231.

**Q.** For `O=C(O)c1cnn(-c2cccc(-c3cc(C(F)(F)F)cnc3-c3ccc(C4CCN(CC(F)(F)F)CC4)cc3)n2)c1C(F)(F)F` [Example 61, 1-[2′-{4-[1-(2,2,2-trifluoroethyl)piperidin-4-yl]phenyl}-5′-(trifluoromethyl)-2,3′-bipyridin-6-yl]-5-(trifluoromethyl)-1H-pyrazole-4-carboxylic acid], which EC50 is on record?
**A.** Its EC50 is 16.3 nM.

**Q.** What about the fold induction of the same molecule?
**A.** The fold induction was 248.

**Q.** For `O=C(O)c1cnn(-c2cccc(-c3cc(Cl)ccc3-c3ccc(C4CCN(C(=O)C5CC5)CC4)cc3)n2)c1C(F)(F)F` [Example 94, 1-(6-{4-chloro-4′-[1-(cyclopropylcarbonyl)piperidin-4-yl]biphenyl-2-yl}pyridin-2-yl)-5-(trifluoromethyl)-1H-pyrazole-4-carboxylic acid], which EC50 is on record?
**A.** The EC50 was 30.2 nM.

**Q.** And the fold induction?
**A.** The fold induction was 281.

**Q.** `COC(=O)N1CCC(c2ccc(-c3ccc(C(F)(F)F)cc3-c3cccc(-n4ncc(C(=O)O)c4C(F)(F)F)n3)cc2)CC1` [Example 127, 1-{6-[4′-[1-(methoxycarbonyl)piperidin-4-yl]-4-(trifluoromethyl)biphenyl-2-yl]pyridin-2-yl}-5-(trifluoromethyl)-1H-pyrazole-4-carboxylic acid] was tested. Which EC50 did it give?
**A.** Its EC50 is 15.8 nM.

**Q.** What about the fold induction of the same molecule?
**A.** The fold induction was 119.

**Q.** With `O=C(O)c1cnn(-c2cccc(-c3cc(F)ccc3-c3ccc(C4CCN(CCC(F)(F)F)CC4)cc3)n2)c1C(F)(F)F` [Example 136, 1-(6-{4-fluoro-4′-[1-(3,3,3-trifluoropropyl)piperidin-4-yl]biphenyl-2-yl}pyridin-2-yl)-5-(trifluoromethyl)-1H-pyrazole-4-carboxylic acid] as the molecule, how does the EC50 read?
**A.** Its EC50 is 78.8 nM.

**Q.** What about the fold induction of the same molecule?
**A.** The fold induction was 162.

**Q.** What does the source list for `O=C(O)c1cnn(-c2cccc(-c3cc(Cl)ccc3-c3ccc(N4CCN(CC(F)(F)F)CC4)cc3)n2)c1C(F)(F)F` [Example 175, 1-(6-{4-chloro-4′-[4-(2,2,2-trifluoroethyl)piperazin-1-yl]biphenyl-2-yl}pyridin-2-yl)-5-(trifluoromethyl)-1H-pyrazole-4-carboxylic acid]?
**A.** EC50: 9.8 nM; fold induction: 703

From patent publication US8895583B2, “Soluble guanylate cyclase activators” (Merck Sharp & Dohme Corp., priority 2010, dated 2014)
